# Assay results from US7041677B2, “Use of monochloroflosequinan in the treatment of sexual dysfunction” (R.T. Alamo Ventures I, LLC, priority 2002, dated 2006).
# “And” between values parts separate entries of the source, which are not always exact repeats. Equal values may be shown once. Marks after values point to notes of the source that are not given here.
# System: male Cynomolgus monkeys (Macaca fascicularis)
# Assay: Erection monitoring after single intracavernosal dose
# Format: in vivo
# Parameters: key to Onset Score / Duration Score: 0: no response; erection but transient—less than 1 minute; 2: erection lasting at least 1 minute but less than 5 minutes; 3: erection lasting at least 5 minutes but less than 7 minutes; 4: erection lasting longer than 7 minutes
# Details: for Erection Score: Erection Score=2D+O; for Onset of Erection: minutes post administration; for Erection Index: Erection Score/n, n=number of animals (4 monkeys); for inducing penile erections: Cynomolgus monkeys, intracavernosal, summary of Tables 4 & 5
# Protocol: In this example, various halogenated derivatives of flosequinan were evaluated for their ability to induce penile erections. A single intracavernosal dose (of a given halogenated derivative of flosequinan) was administered to male Cynomolgus monkeys (Macaca fascicularis). The Cynomolgus monkey was selected because it is an appropriate established non-rodent species to be used as an erectile dysfunction model. Before the application of the test substances the possible erectile effect of dimethylsulfoxide 25% (DMSO) at a dose volume of 0.15 ml was assessed. (Concentrations of test compounds of less than 10 mg/ml were administered in 25% DMSO. Concentrations of 10 mg/ml or greater were administered in 100% DMSO). An initial dose level of 0.625 mg/kg of the test substance and the derivatives were used. If an erectile effect of the initial dose level was observed 1.25 mg/kg and finally 2.5 mg/kg of each test substance was used. Between each dose level and change of test substance there was a wash out phase of three days [except on Days 1 to 4 (Monochloroflosequinan Racemate) and days 40 to 43 (Monofluoroflosequinan) of the study where there was a wash out phase of only two days between treatments]. Dose volume: A dose volume of 0.15 ml per animal was used. The test substances were prepared according to the following scheme. For each test substance 10 mg was diluted in 1 ml of DMSO. After the test substance was completely dissolved the solution was diluted stepwise 1:2 with double distilled water to the required dose level. The test substance was formulated on the day of the dosing and stored at room temperature. No stability test was required when the test substances were formulated on the day of dosing. Remaining test substances were stored at approximately -80° C. Sufficient purpose-bred naive Cynomolgus monkeys (Macaca fascicularis) were obtained from a recognized supplier in order to provide 4 healthy male animals. At the start of study the animals were in the weight range of 4 to 7 kg and approximately 4 to 6 years old. The animals were housed in a climate controlled room to provide a minimum of 10 air changes per hour. Routinely the temperature and relative humidity ranges were between 19-25° C. and 30-70% respectively. Artificial lighting was controlled automatically to give a cycle of 12 hours light and 12 hours dark. The animals were housed singly in stainless steel cages (dimensions: 600 mm×600 mm×800 mm; E. Becker & Co. GmbH, 44579 Castrop-Rauxel, Germany). Each animal was offered twice daily between 50 to 70 g of a commercial pellet diet for primates (Ssniff P10, Ssniff Spezialdiäten GmbH, Ferdinand-Gabriel-Weg 16, 59494 Soest, Germany). Every three months diet was analyzed for specific contaminants. Tap water was provided ad libtum via an automatic watering system or bottles, except during urine collection. The water was periodically analyzed for specific contaminants found to be present in the diet or water at levels that might interfere with achieving the objective of the study. Clinical Observations: In addition to the initial pharmacological effect (penile erection) monitoring, all animals were observed twice daily for signs of ill health or overt toxicity. An individual record was maintained of the clinical condition of each animal. Post-dosing observations were performed at the discretion of the Study Director. All animals were examined at the beginning and the end of the working hours. […] Body weights were recorded once before dosing. Food consumption was not recorded. For proof of erection capability the animals were checked once pre-dose with electrostimulation using a rectal probe under sedation with […]. […] The onset post drug administration and duration of erection were recorded. Table 5 (below) provides an “Erection Score” and “Erection Index” for the same selected halogenated flosequinan derivatives presented in Table 5. […]
# [1] = 0.625 mg/ml intracavernosal, monkey 11539M
# [2] = 0.625 mg/ml intracavernosal, monkey 11543M
# [3] = 0.625 mg/ml intracavernosal, monkey 11584M
# [4] = 0.625 mg/ml intracavernosal, monkey 11590M
# [5] = 2.5 mg/ml intracavernosal, monkey 11539M
# [6] = 2.5 mg/ml intracavernosal, monkey 11543M
# [7] = 2.5 mg/ml intracavernosal, monkey 11584M
# [8] = 2.5 mg/ml intracavernosal, monkey 11590M
# [9] = 10 mg/ml intracavernosal, monkey 11539M
# [10] = 10 mg/ml intracavernosal, monkey 11543M
# [11] = 10 mg/ml intracavernosal, monkey 11584M
# [12] = 10 mg/ml intracavernosal, monkey 11590M
smiles,measurement,setting,value
"Cn1cc([S+]([O-])CCl)c(=O)c2ccc(F)cc21 (racemic) [monochloroflosequinan, 3-chloromethylsulfinyl-7-fluoro-1-methyl-4-quinolone]",Duration Score,[1],0
same,Onset Score,[1],0
same,Erection Score,[1],0
same,Duration Erection,[2],<1 min-^
same,Duration Score,[2],0
same,Onset Score,[2],0
same,Onset of Erection,[2],70^a* min
same,Erection Score,[2],0
same,Duration Score,[3],0
same,Onset Score,[3],0
same,Erection Score,[3],0
same,Duration Score,[4],0
same,Onset Score,[4],0
same,Erection Score,[4],0
same,Erection Index,0.625 mg/ml intracavernosal,0
same,Duration Score,[5],0
same,Onset Score,[5],0
same,Erection Score,[5],0
same,Duration Score,[6],0
same,Onset Score,[6],0
same,Erection Score,[6],0
same,Duration Score,[7],0
same,Onset Score,[7],0
same,Erection Score,[7],0
same,Duration Score,[8],0
same,Onset Score,[8],0
same,Erection Score,[8],0
same,Erection Index,2.5 mg/ml intracavernosal,0
same,Duration Score,[9],0
same,Onset Score,[9],0
same,Erection Score,[9],0
same,Duration Score,[10],0
same,Onset Score,[10],0
same,Erection Score,[10],0
same,Duration Score,[11],0
same,Onset Score,[11],0
same,Erection Score,[11],0
same,Duration Score,[12],0
same,Onset Score,[12],0
same,Erection Score,[12],0
same,Erection Index,10 mg/ml intracavernosal,0
"Cn1cc([S@+]([O-])CCl)c(=O)c2ccc(F)cc21 (single isomer, unassigned) [(+)-enantiomer of monochloroflosequinan]",Duration Erection,[5],<1 min
same,Duration Score,[5],1 (erection but transient—less than 1 minute)
same,Onset Score,[5],1 (erection onset longer than 10 minutes)
same,Onset of Erection,[5],107* min
same,Erection Score,[5],3
same,Duration Erection,[6],<1 min
same,Duration Score,[6],1 (erection but transient—less than 1 minute)
same,Onset Score,[6],1* (erection onset longer than 10 minutes)
same,Onset of Erection,"2.5 mg/ml intracavernosal, monkey 11543M, listed as MONOCHLOROFLOSEQUINAN S(+)",34* min and 38* min and 39^a* ejaculation min
same,Erection Score,[6],3
same,Duration Score,[7],1 (erection but transient—less than 1 minute)
same,Onset Score,[7],1 (erection onset longer than 10 minutes)
same,Erection Score,[7],3
same,Duration Score,[8],3 (erection lasting at least 5 minutes but less than 7 minutes)
same,Onset Score,[8],4 (erection onset 1 minute or less (immediate))
same,Erection Score,[8],10
same,Erection Index,2.5 mg/ml intracavernosal,4.8
same,Duration Score,[9],0
same,Onset Score,[9],4* (erection onset 1 minute or less (immediate))
same,Erection Score,[9],4
same,Duration Score,[10],0
same,Onset Score,[10],0
same,Erection Score,[10],0
same,Duration Erection,[11],<1 min
same,Duration Score,[11],1 (erection but transient—less than 1 minute)
same,Onset Score,[11],3* (erection onset between 2 and 4 minutes)
same,Erection Score,[11],5
same,Duration Erection,[12],8 min
same,Duration Score,[12],4 (erection lasting longer than 7 minutes)
same,Onset Score,[12],4 (erection onset 1 minute or less (immediate))
same,Onset of Erection,[12],immediate <1 min
same,Erection Score,[12],12
same,Erection Index,10 mg/ml intracavernosal,5.3
same,inducing penile erections,,especially effective
"Cn1cc([S@@+]([O-])CCl)c(=O)c2ccc(F)cc21 (single isomer, unassigned) [(−)-enantiomer of monochloroflosequinan]",Duration Score,[9],0
same,Onset Score,[9],0
same,Erection Score,[9],0
same,Duration Score,[10],0
same,Onset Score,[10],0
same,Erection Score,[10],0
same,Duration Score,[11],0
same,Onset Score,[11],0
same,Erection Score,[11],0
same,Duration Erection,[12],7 min
same,Duration Score,[12],3 (erection lasting at least 5 minutes but less than 7 minutes)
same,Onset Score,[12],4 (erection onset 1 minute or less (immediate))
same,Onset of Erection,[12],immediate <1 min
same,Erection Score,[12],10
same,Erection Index,10 mg/ml intracavernosal,2.5
"Cn1cc([S+]([O-])C(Cl)Cl)c(=O)c2ccc(F)cc21 (stereo not shown) [dichloroflosequinan, 3-dichloromethylsulfinyl-7-fluoro-1-methyl-4-quinolone]",Duration Score,[9],0
same,Onset Score,[9],0
same,Erection Score,[9],0
same,Duration Erection,[10],1 min
same,Duration Score,[10],2 (erection lasting at least 1 minute but less than 5 minutes)
same,Onset Score,[10],4 (erection onset 1 minute or less (immediate))
same,Erection Score,[10],8
same,Duration Erection,[11],1 min
same,Duration Score,[11],2 (erection lasting at least 1 minute but less than 5 minutes)
same,Onset Score,[11],4 (erection onset 1 minute or less (immediate))
same,Onset of Erection,[11],immediate <1 min
same,Erection Score,[11],8
same,Duration Erection,[12],7 min
same,Duration Score,[12],4 (erection lasting longer than 7 minutes)
same,Onset Score,[12],4 (erection onset 1 minute or less (immediate))
same,Onset of Erection,[12],immediate <1 min
same,Erection Score,[12],12
same,Erection Index,10 mg/ml intracavernosal,7.0
same,inducing penile erections,,especially effective
